Patent US10189840B2, “Substituted tricyclic heterocyclic compounds” (BRISTOL-MYERS SQUIBB COMPANY, priority 2015, dated 2019)

These compounds were tested against TNFα (Homo sapiens (Human), UniProt P01375) (assay: TNF induced HEK-Blue assay). Conditions: TNFα 0.5 ng/ml; HEK-Blue-CD40L cells, NF-κB-driven secreted alkaline phosphatase reporter; 18 h.
TNFα, sequence (P01375 77-233): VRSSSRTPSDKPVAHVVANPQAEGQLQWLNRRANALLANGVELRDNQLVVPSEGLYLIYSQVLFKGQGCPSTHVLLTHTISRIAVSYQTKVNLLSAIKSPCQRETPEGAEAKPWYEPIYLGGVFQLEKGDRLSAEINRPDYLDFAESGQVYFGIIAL
Assay type: cell-based
Description: Test compounds serially diluted in DMSO were plated in an assay plate (Labcyte, Cat. #LP-0200) at final concentrations ranging from 0.004 μM to 25 μM. TNFα (final concentration 0.5 ng/ml) or CD40L (final concentration 30 ng/ml) in assay buffer [DMEM, 4.5 g/l glucose (Gibco, Cat. 21063-029), 10% FBS (Sigma, F4135), 1% Penicillin-Streptomycin (Gibco, Cat. 15140-122), 1% Anti-Anti (Gibco, Cat. 15240-112) and 2 mM L-glutamine (Gibco, Cat. 25030-081)] was then added to the assay plate. After a 30 minute pre-incubation at 37° C. and 5% CO2, HEK-Blue-CD40L cells (InvivoGen, Cat. Code hkb-cd40) containing a NF-κB-driven secreted alkaline phosphatase reporter gene were seeded into the assay plate at a density of 20,000 cells per well. This plate was then incubated for 18 h at 37° C. and 5% CO2. Secreted alkaline phosphatase expression was measured using QUANTI-Blue (InvivoGen, Cat. Code rep-qb1) according to manufacturer's specifications and the assay plate was read on a PerkinElmer Envision at 620 nm.
Inhibition data for the test compound over a range of concentrations was plotted as percentage inhibition of the test compound (100%=maximum inhibition). IC50 values were determined after correcting for background [(sample read−mean of low control)/(mean of high control−mean of low control)] where by the low control is DMSO without stimulation and high control is DMSO with stimulation. The IC50 is defined as the concentration of test compound which produces 50% inhibition and was quantified using the 4 parameter logistic equation to fit the data.
Table 5 lists the IC50 values measured in the TNF induced HEK-Blue assay for Examples 1 to 40 of this invention.
`CC(C)(O)c1ncc(-c2ccc3nc4n(c3n2)C(c2ccccc2OC(F)F)CC4)cn1` (racemic) [Example 27 (rac), 2-(5-(8-(2-(difluoromethoxy)phenyl)-7,8-dihydro-6H-pyrrolo[2′,1′:2,3]imidazo[4,5-b]pyridin-2-yl)pyrimidin-2-yl)propan-2-ol] gave an IC50 of less than 1000 nM. Compound `Cc1ccc(C(F)(F)F)cc1C1CC(O)c2nc3ccc(-c4ccc(C(C)(C)O)cc4)nc3n21` (stereo not drawn) [Example 7 (DM), 2-(4-(2-hydroxypropan-2-yl)phenyl)-8-(2-methyl-5-(trifluoromethyl)phenyl)-7,8-dihydro-6H-pyrrolo[2′,1′:2,3]imidazo[4,5-b]pyridin-6-ol] has an IC50 of 1000 to 10000 nM. In the case of `COc1ccccc1C1CC(O)c2nc3ccc(-c4ccc(C(C)(C)O)cc4)nc3n21` (single isomer, unassigned) [Example 12 (e3), 2-(4-(2-hydroxypropan-2-yl)phenyl)-8-(2-methoxyphenyl)-7,8-dihydro-6H-pyrrolo[2′,1′:2,3]imidazo[4,5-b]pyridin-6-ol], the IC50 is reported as 10000 to 25000 nM. In the case of `CC(C)(O)c1ccc(-c2ccc3nc4n(c3n2)C(c2cc(F)ccc2C(F)(F)F)CC4)cc1` (racemic) [Example 34 (rac), 2-(4-(8-(5-fluoro-2-(trifluoromethyl)phenyl)-7,8-dihydro-6H-pyrrolo[2′,1′:2,3]imidazo[4,5-b]pyridin-2-yl)phenyl)propan-2-ol], the IC50 is reported as less than 1000 nM. Compound `CC(C)(O)c1ncc(-c2ccc3nc4n(c3n2)C(c2ccccc2OC(F)F)CC4F)cn1` (stereo not drawn) [Example 16 (e2), 2-(5-(8-(2-(difluoromethoxy)phenyl)-6-fluoro-7,8-dihydro-6H-pyrrolo[2′,1′:2,3]imidazo[4,5-b]pyridin-2-yl)pyrimidin-2-yl)propan-2-ol] has an IC50 of less than 1000 nM. `CC(C)(O)c1ccc(-c2ccc3nc4n(c3n2)C(c2cc(F)ccc2C(F)(F)F)CC4)cc1` (single isomer, unassigned) [Example 34 (e2), 2-(4-(8-(5-fluoro-2-(trifluoromethyl)phenyl)-7,8-dihydro-6H-pyrrolo[2′,1′:2,3]imidazo[4,5-b]pyridin-2-yl)phenyl)propan-2-ol] was tested, and the IC50 was 1000 to 10000 nM. For `CC(C)(O)c1ccc(-c2ccc3nc4n(c3n2)C(c2ccccc2OC(F)F)CC4)cc1` (single isomer, unassigned) [Example 26 (e2), 2-(4-(8-(2-(difluoromethoxy)phenyl)-7,8-dihydro-6H-pyrrolo[2′,1′:2,3]imidazo[4,5-b]pyridin-2-yl)phenyl)propan-2-ol], the IC50 was 10000 to 25000 nM. For `CC(C)(O)c1ccc(-c2ccc3nc4n(c3n2)C(c2ccccc2C(F)(F)F)CC4F)cc1` (single isomer, unassigned) [Example 14 (e1), 2-(4-(6-Fluoro-8-(2-(trifluoromethyl)phenyl)-7,8-dihydro-6H-pyrrolo[2′,1′:2,3]imidazo[4,5-b]pyridin-2-yl)phenyl)propan-2-ol], the IC50 was 1000 to 10000 nM. For `COc1ccc(-c2ccc3nc4n(c3n2)C(c2ccccc2OC(F)F)CC4F)cn1` (stereo not drawn) [Example 18 (DM), 8-(2-(difluoromethoxy)phenyl)-6-fluoro-2-(6-methoxypyridin-3-yl)-7,8-dihydro-6H-pyrrolo[2′,1′:2,3]imidazo[4,5-b]pyridine], the IC50 was 1000 to 10000 nM. Compound `Cc1ccc(C)c([C@H]2CCc3nc4ccc(-c5ccc(N6CCN(C)CC6)cc5)nc4n32)c1` [Example 38, (R)-8-(2,5-dimethylphenyl)-2-(4-(4-methylpiperazin-1-yl)phenyl)-7,8-dihydro-6H-pyrrolo[2′,1′:2,3]imidazo[4,5-b]pyridine] has an IC50 of 1000 to 10000 nM. With `COc1ccccc1C1CC(O)c2nc3ccc(-c4ccc(C(C)(C)O)cc4)nc3n21` (single isomer, unassigned) [Example 12 (e2), 2-(4-(2-hydroxypropan-2-yl)phenyl)-8-(2-methoxyphenyl)-7,8-dihydro-6H-pyrrolo[2′,1′:2,3]imidazo[4,5-b]pyridin-6-ol] the IC50 was 1000 to 10000 nM. For `COc1ccccc1C1CCc2nc3ccc(-c4cnc(N5CCN(CC(=O)O)CC5)nc4)nc3n21` (racemic) [Example 35 (rac), 2-(4-(5-(8-(2-methoxyphenyl)-7,8-dihydro-6H-pyrrolo[2′,1′:2,3]imidazo[4,5-b]pyridin-2-yl)pyrimidin-2-yl)piperazin-1-yl)acetic acid], the IC50 was 1000 to 10000 nM. Work on `CC(C)(O)c1ncc(-c2ccc3nc4n(c3n2)C(c2ccccc2OC(F)F)CC4O)cn1` (stereo not drawn) [Example 11 (e4), 8-(2-(difluoromethoxy)phenyl)-2-(2-(2-hydroxypropan-2-yl)pyrimidin-5-yl)-7,8-dihydro-6H-pyrrolo[2′,1′:2,3]imidazo[4,5-b]pyridin-6-ol] yielded an IC50 of 1000 to 10000 nM. Work on `Cn1cc(-c2ccc3nc4n(c3n2)C(c2ccccc2OC(F)F)CC4F)cn1` (stereo not drawn) [Example 19 (e3), 8-(2-(difluoromethoxy)phenyl)-6-fluoro-2-(1-methyl-1H-pyrazol-4-yl)-7,8-dihydro-6H-pyrrolo[2′,1′:2,3]imidazo[4,5-b]pyridine] yielded an IC50 of 1000 to 10000 nM. `CC(C)(O)c1ccc(-c2ccc3nc4n(c3n2)C(c2cc(C(F)(F)F)ccc2C(F)(F)F)CC4O)cc1` (stereo not drawn) [Example 8 (DM), 8-(2,5-bis(trifluoromethyl)phenyl)-2-(4-(2-hydroxypropan-2-yl)phenyl)-7,8-dihydro-6H-pyrrolo[2′,1′:2,3]imidazo[4,5-b]pyridin-6-ol] gave an IC50 of 1000 to 10000 nM. In the case of `FC(F)Oc1ccccc1C1CCc2nc3ccc(-c4cnc(N5CCOCC5)nc4)nc3n21` (racemic) [Example 28 (rac), 4-(5-(8-(2-(difluoromethoxy)phenyl)-7,8-dihydro-6H-pyrrolo[2′,1′:2,3]imidazo[4,5-b]pyridin-2-yl)pyrimidin-2-yl)morpholine], the IC50 is reported as less than 1000 nM. With `CC(C)(O)c1ccc(-c2ccc3nc4n(c3n2)C(c2ccccc2C2CC2)CC4O)cc1` (single isomer, unassigned) [Example 9 (e3), 8-(2-cyclopropylphenyl)-2-(4-(2-hydroxypropan-2-yl)phenyl)-7,8-dihydro-6H-pyrrolo[2′,1′:2,3]imidazo[4,5-b]pyridin-6-ol] the IC50 was 1000 to 10000 nM. `CC(C)(O)c1ccc(-c2ccc3nc4n(c3n2)C(c2c(F)cccc2C(F)(F)F)CC4)cc1` (racemic) [Example 32 (rac), 2-(4-(8-(2-fluoro-6-(trifluoromethyl)phenyl)-7,8-dihydro-6H-pyrrolo[2′,1′:2,3]imidazo[4,5-b]pyridin-2-yl)phenyl)propan-2-ol] was tested, and the IC50 was less than 1000 nM. `CC(C)(O)c1ccc(-c2ccc3nc4n(c3n2)C(c2c(F)cccc2C(F)(F)F)CC4)cc1` (single isomer, unassigned) [Example 32 (e1), 2-(4-(8-(2-fluoro-6-(trifluoromethyl)phenyl)-7,8-dihydro-6H-pyrrolo[2′,1′:2,3]imidazo[4,5-b]pyridin-2-yl)phenyl)propan-2-ol] gave an IC50 of less than 1000 nM. Work on `CC(C)(O)c1ncc(-c2ccc3nc4n(c3n2)C(c2ccccc2OC(F)F)CC4F)cn1` (stereo not drawn) [Example 16 (DM), 2-(5-(8-(2-(difluoromethoxy)phenyl)-6-fluoro-7,8-dihydro-6H-pyrrolo[2′,1′:2,3]imidazo[4,5-b]pyridin-2-yl)pyrimidin-2-yl)propan-2-ol] yielded an IC50 of less than 1000 nM. `CC(C)(O)c1ccc(-c2ccc3nc4n(c3n2)C(c2ccccc2OC(F)F)CC4F)cc1` (single isomer, unassigned) [Example 15 (e2), 2-(4-(8-(2-(difluoromethoxy)phenyl)-6-fluoro-7,8-dihydro-6H-pyrrolo[2′,1′:2,3]imidazo[4,5-b]pyridin-2-yl)phenyl)propan-2-ol] was tested, and the IC50 was 10000 to 25000 nM.
